Columns and labels:
Assay type in all cases: cell-based
[1] = tested on: full-length androgen receptor; experiment: Western blot: degradation of full-length androgen receptor in CWR22RV1 cells; conditions: overnight
Method: CWR22Rv1 cells were maintained in RPMI medium supplemented with 10% fetal bovine serum and 1% penicillin-streptomycin at 37° C. in a humidified environment with 5% CO2.
CWR22Rv1 (5×10^5 cells) were seeded in each well of a 6-well plate and incubated overnight. Before compound treatment, the medium in the wells was replaced with a new medium. Cells were treated with different concentrations of compound overnight. Subsequently, cells were harvested by adding cold PBS and scraping cells. Cells were lysed according to general procedures and Western blot assays were performed to assess the ability of compounds to degrade full-length androgen receptor or androgen receptor splice variant 7. The cells or cell lysates were kept on ice at all times.
The following reagents were used in this experiment. Phosphate buffered saline (PBS) (Hyclone, SH30028.02), fetal bovine serum (Hyclone, SH30084.23, Lot AC14563276), penicillin-streptomycin solution (Hyclone, SV30010), 0.5% Trypsin-EDTA (Gibco, 15400-054), CST Lysis Buffer (CST-9803), Halt™ Protease and Phosphatase Inhibitor (ThermoFisher, 78442), Coomassie (Bradford) Protein Assay (Coomassie (Bradford) protein assay) (ThermoFisher, 23200), androgen receptor antibody (Cell Siginaling, CST-5153S), GAPDH antibody (Cell Siginaling, CST-5174S), HRP-goat-anti-rabbit (Jackson Immuno Research, 111-035-003), skim milk, SuperSignal West Pico Maximum Sensitivity substrate (ThermoFisher, 34080).
The compound prepared above was analyzed for its ability to degrade full-length androgen receptor and androgen receptor splice variant 7 in CWR22RV1 cells by Western blotting according to the method shown in item B.3-2 above.

[2] = tested on: CWR22RV1 cells; experiment: Cytotoxicity assay (AlamarBlue, 72 hours); conditions: 72 hours treatment, concentration not given
Summary of the method: (§1)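 CWR22Rv1 or VCaP cells in RPMI-1640 with 10% FBS were seeded at 1×10^4 cells/well. Next day they were treated with compound, test samples at 100, 10, 1 and 0.1 μM, giving 1% DMSO final. After 72 h, AlamarBlue was added for 4 h, fluorescence was read at Ex/Em 560/590 nm, and % cytotoxicity was calculated.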

[3] = tested on: VCaP cells; experiment: Cytotoxicity assay (AlamarBlue, 72 hours); conditions: 72 hours treatment, concentration not given
Summary of the method: as §1

[4] = compound concentration 0.1 (unit not given)
[5] = compound concentration 1 (unit not given)
[6] = compound concentration 10 (unit not given)

SMILES: O=C1CCC(N2Cc3cc(C4=CCN(C(=O)COCCCCOc5ccc(C6CCN(C7=Nn8c(nnc8C(F)(F)F)CC7)CC6)cc5)CC4)ccc3C2=O)C(=O)N1 (centres unmarked) [Compound 40, 3-(1-oxo-5-(1-(2-(4-(4-(1-(3-(trifluoromethyl)-7,8-dihydro-[1,2,4]triazolo[4,3-b]pyridazin-6-yl)piperidin-4-yl)phenoxy)butoxy)acetyl)-1,2,3,6-tetrahydropyridin-4-yl)isoindolin-2-yl)piperidine-2,6-dione]
- Degradation ability for full-length androgen receptor (residual rate %) [1, 4]: + (60-80%: +)
- Degradation ability for full-length androgen receptor (residual rate %) [1, 5]: + (60-80%: +)
- Degradation ability for full-length androgen receptor (residual rate %) [1, 6]: +++ (<40%: +++)
- Cytotoxicity, CWR22RV1 cells (cell viability %) [2]: ++ (40-60% : ++)
- Cytotoxicity, VCaP cells (cell viability %) [3]: ++ (40-60% : ++)

SMILES: O=C1CCC(N2Cc3cc(C4CCN(C(=O)COCCCCOc5ccc(C6CCN(C7=Nn8c(nnc8C(F)(F)F)CC7)CC6)cc5)CC4)ccc3C2=O)C(=O)N1 (centres unmarked) [Compound 41, 3-(1-oxo-5-(1-(2-(4-(4-(1-(3-(trifluoromethyl)-7,8-dihydro-[1,2,4]triazolo[4,3-b]pyridazin-6-yl)piperidin-4-yl)phenoxy)butoxy)acetyl)piperidin-4-yl)isoindolin-2-yl)piperidine-2,6-dione]
- Degradation ability for full-length androgen receptor (residual rate %) [1, 4]: − (>80%; −)
- Degradation ability for full-length androgen receptor (residual rate %) [1, 5]: + (60-80%: +)
- Degradation ability for full-length androgen receptor (residual rate %) [1, 6]: +++ (<40%: +++)
- Cytotoxicity, CWR22RV1 cells (cell viability %) [2]: ++ (40-60% : ++)
- Cytotoxicity, VCaP cells (cell viability %) [3]: +++ (<40% : +++)

SMILES: O=C1CCC(N2Cc3cc(C#CCOCCCCOc4ccc(C5CCN(C6=Nn7c(nnc7C(F)(F)F)CC6)CC5)cc4)ccc3C2=O)C(=O)N1 (centres unmarked) [Compound 42]
- Degradation ability for full-length androgen receptor (residual rate %) [1, 4]: − (>80%; −)
- Degradation ability for full-length androgen receptor (residual rate %) [1, 5]: − (>80%; −)
- Degradation ability for full-length androgen receptor (residual rate %) [1, 6]: + (60-80%: +)
- Cytotoxicity, CWR22RV1 cells (cell viability %) [2]: + (60-80% : +)
- Cytotoxicity, VCaP cells (cell viability %) [3]: + (60-80% : +)

SMILES: O=C1CCC(N2C(=O)c3cccc(NCC(=O)N4CCC(N5CCC(C#Cc6ccc(C7CCN(C8=Nn9c(nnc9C(F)(F)F)CC8)CC7)cc6)CC5)CC4)c3C2=O)C(=O)N1 (centres unmarked) [Compound 43, 2-(2,6-dioxopiperidin-3-yl)-4-((2-oxo-2-(4-((4-(1-(3-(trifluoromethyl)-7,8-dihydro-[1,2,4]triazolo[4,3-b]pyridazin-6-yl)piperidin-4-yl)phenyl)ethynyl)-[1,4′-bipiperidin]-1′-yl)ethyl)amino)isoindoline-1,3-dione]
- Degradation ability for full-length androgen receptor (residual rate %) [1, 4]: ++ (40-60%: ++)
- Degradation ability for full-length androgen receptor (residual rate %) [1, 5]: ++ (40-60%: ++)
- Degradation ability for full-length androgen receptor (residual rate %) [1, 6]: ++ (40-60%: ++)
- Cytotoxicity, CWR22RV1 cells (cell viability %) [2]: +++ (<40% : +++)
- Cytotoxicity, VCaP cells (cell viability %) [3]: +++ (<40% : +++)

SMILES: O=C1CCC(N2C(=O)c3cccc(N4CCC(N5CCC(C#Cc6ccc(C7CCN(C8=Nn9c(nnc9C(F)(F)F)CC8)CC7)cc6)CC5)CC4)c3C2=O)C(=O)N1 (centres unmarked) [Compound 44, 2-(2,6-dioxopiperidin-3-yl)-4-(4-((4-(1-(3-(trifluoromethyl)-7,8-dihydro-[1,2,4]triazolo[4,3-b]pyridazin-6-yl)piperidin-4-yl)phenyl)ethynyl)-[1,4′-bipiperidin]-1′-yl)isoindoline-1,3-dione]
- Degradation ability for full-length androgen receptor (residual rate %) [1, 4]: − (>80%; −)
- Degradation ability for full-length androgen receptor (residual rate %) [1, 5]: − (>80%; −)
- Degradation ability for full-length androgen receptor (residual rate %) [1, 6]: ++ (40-60%: ++)
- Cytotoxicity, CWR22RV1 cells (cell viability %) [2]: +++ (<40% : +++)
- Cytotoxicity, VCaP cells (cell viability %) [3]: +++ (<40% : +++)

SMILES: O=C1CCC(N2C(=O)c3cccc(N4CCN(C(=O)COCCCCOc5ccc(C6CCN(C7=Nn8c(nnc8C(F)(F)F)CC7)CC6)cc5)CC4)c3C2=O)C(=O)N1 (centres unmarked) [Compound 45, 2-(2,6-dioxopiperidin-3-yl)-4-(4-(2-(4-(4-(1-(3-(trifluoromethyl)-7,8-dihydro-[1,2,4]triazolo[4,3-b]pyridazin-6-yl)piperidin-4-yl)phenoxy)butoxy)acetyl)piperazin-1-yl)isoindoline-1,3-dione]
- Degradation ability for full-length androgen receptor (residual rate %) [1, 4]: − (>80%; −)
- Degradation ability for full-length androgen receptor (residual rate %) [1, 5]: ++ (40-60%: ++)
- Degradation ability for full-length androgen receptor (residual rate %) [1, 6]: ++ (40-60%: ++)
- Cytotoxicity, CWR22RV1 cells (cell viability %) [2]: + (60-80% : +)
- Cytotoxicity, VCaP cells (cell viability %) [3]: +++ (<40% : +++)

SMILES: CC1(C)[C@H](NC(=O)c2ccc(C#CC3CCN(c4cccc5c4C(=O)N(C4CCC(=O)NC4=O)C5=O)CC3)cc2)C(C)(C)[C@H]1Oc1ccc2nnc(C(F)(F)F)n2n1 (some centres unmarked) [Compound 46, 4-((1-(2-(2,6-dioxopiperidin-3-yl)-1,3-dioxoisoindolin-4-yl)piperidin-4-yl)ethynyl)-N-((1r,3r)-2,2,4,4-tetramethyl-3-((3-(trifluoromethyl)-[1,2,4]triazolo[4,3-b]pyridazin-6-yl)oxy)cyclobutyl)benzamide]
- Degradation ability for full-length androgen receptor (residual rate %) [1, 4]: ++ (40-60%: ++)
- Degradation ability for full-length androgen receptor (residual rate %) [1, 5]: ++ (40-60%: ++)
- Degradation ability for full-length androgen receptor (residual rate %) [1, 6]: − (>80%; −)
- Cytotoxicity, CWR22RV1 cells (cell viability %) [2]: − (<80% : −)
- Cytotoxicity, VCaP cells (cell viability %) [3]: ++ (40-60% : ++)

SMILES: O=C1CCC(N2C(=O)c3cccc(N4CCN(c5ccc(C(=O)N[C@H]6CC[C@H](Oc7ccc8nnc(C(F)(F)F)n8n7)CC6)cn5)CC4)c3C2=O)C(=O)N1 (some centres unmarked) [Compound 47, 6-(4-(2-(2,6-dioxopiperidin-3-yl)-1,3-dioxoisoindolin-4-yl)piperazin-1-yl)-N-((1r,4r)-4-((3-(trifluoromethyl)-[1,2,4]triazolo[4,3-b]pyridazin-6-yl)oxy)cyclohexyl)nicotinamide]
- Degradation ability for full-length androgen receptor (residual rate %) [1, 4]: ++ (40-60%: ++)
- Degradation ability for full-length androgen receptor (residual rate %) [1, 5]: +++ (<40%: +++)
- Degradation ability for full-length androgen receptor (residual rate %) [1, 6]: + (60-80%: +)
- Cytotoxicity, CWR22RV1 cells (cell viability %) [2]: − (<80% : −)
- Cytotoxicity, VCaP cells (cell viability %) [3]: ++ (40-60% : ++)

SMILES: O=C1CCC(N2C(=O)c3cccc(N4CCC(CN5CCN(c6ccc(C(=O)N[C@H]7CC[C@H](Oc8ccc9nnc(C(F)(F)F)n9n8)CC7)cn6)CC5)CC4)c3C2=O)C(=O)N1 (some centres unmarked) [Compound 48, 6-(4-((1-(2-(2,6-dioxopiperidin-3-yl)-1,3-dioxoisoindolin-4-yl)piperidin-4-yl)methyl)piperazin-1-yl)-N-((1r,4r)-4-((3-(trifluoromethyl)-[1,2,4]triazolo[4,3-b]pyridazin-6-yl)oxy)cyclohexyl)nicotinamide]
- Degradation ability for full-length androgen receptor (residual rate %) [1, 4]: − (>80%; −)
- Degradation ability for full-length androgen receptor (residual rate %) [1, 5]: − (>80%; −)
- Degradation ability for full-length androgen receptor (residual rate %) [1, 6]: − (>80%; −)
- Cytotoxicity, CWR22RV1 cells (cell viability %) [2]: − (<80% : −)
- Cytotoxicity, VCaP cells (cell viability %) [3]: − (<80% : −)

SMILES: CC1(C)C(NC(=O)c2ccc(C#CC3CCN(C(=O)CNc4cccc5c4C(=O)N(C4CCC(=O)NC4=O)C5=O)CC3)cc2)C(C)(C)C1Oc1ccc2nnc(C(F)(F)F)n2n1 (centres unmarked) [Compound 49, 4-((1-((2-(2,6-dioxopiperidin-3-yl)-1,3-dioxoisoindolin-4-yl)glycyl)piperidin-4-yl)ethynyl)-N-((1r,3r)-2,2,4,4-tetramethyl-3-((3-(trifluoromethyl)-[1,2,4]triazolo[4,3-b]pyridazin-6-yl)oxy)cyclobutyl)benzamide]
- Degradation ability for full-length androgen receptor (residual rate %) [1, 4]: ++ (40-60%: ++)
- Degradation ability for full-length androgen receptor (residual rate %) [1, 5]: ++ (40-60%: ++)
- Degradation ability for full-length androgen receptor (residual rate %) [1, 6]: − (>80%; −)
- Cytotoxicity, CWR22RV1 cells (cell viability %) [2]: ++ (40-60% : ++)
- Cytotoxicity, VCaP cells (cell viability %) [3]: +++ (<40% : +++)

— patent US12152035B2, “Androgen receptor binding molecule and use thereof” (Industrial Technology Research Institute, priority 2020, dated 2024)
